Measured values published in patent US8618119B2, “Fused cyanopyridines and the use thereof” (Bayer Intellectual Property GmbH, priority 2007, dated 2013).

How the values were obtained:
Assay type in all cases: cell-based
[1] = target: T1, adenosine A1 receptor (Homo sapiens, UniProt P30542); experiment: Indirect determination of adenosine agonism by way of gene expression (luciferase reporter), A1 cells; settings: CHO cells stably transfected with A1 receptor cDNA; 1 μM forskolin; 50% inhibition of luciferase answer
T1 construct: expressed in transfected cells; host or cells: CHO (Chinese Hamster Ovary)
T1 sequence (P30542 1-326): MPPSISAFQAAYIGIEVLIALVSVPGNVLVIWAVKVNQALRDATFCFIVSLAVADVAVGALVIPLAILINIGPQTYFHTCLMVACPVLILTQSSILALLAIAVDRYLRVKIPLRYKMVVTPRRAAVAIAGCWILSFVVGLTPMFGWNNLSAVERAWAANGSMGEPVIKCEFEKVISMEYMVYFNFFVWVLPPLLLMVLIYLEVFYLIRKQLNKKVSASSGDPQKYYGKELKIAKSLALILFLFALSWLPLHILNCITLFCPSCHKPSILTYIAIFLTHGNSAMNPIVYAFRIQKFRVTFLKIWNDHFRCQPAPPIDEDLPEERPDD
Source text: (§1) B-1. Indirect Determination of the Adenosine Agonism by Way of Gene Expression
(§2) Cells of the CHO (Chinese Hamster Ovary) permanent line are transfected stably with the cDNA for the adenosine receptor subtypes A1, A2a and A2b. The adenosine A1 receptors are coupled to the adenylate cyclase by way of Gi proteins, while the adenosine A2a and A2b receptors are coupled by way of Gs proteins. In correspondence with this, the formation of cAMP in the cell is inhibited or stimulated, respectively. After that, expression of the luciferase is modulated by way of a cAMP-dependent promoter. The luciferase test is optimized, with the aim of high sensitivity and reproducibility, low variance and good suitability for implementation on a robot system, by varying several test parameters, such as cell density, duration of the growth phase and the test incubation, forskolin concentration and medium composition. The following test protocol is used for pharmacologically characterizing cells and for the robot-assisted substance screening:
(§3) The stock cultures are grown, at 37° C. and under 5% CO2, in DMEM/F12 medium containing 10% FCS (fetal calf serum) and in each case split 1:10 after 2-3 days. The test cultures are seeded in 384-well plates with 2000 cells per well and grown at 37° C. for approx. 48 hours. The medium is then replaced with a physiological sodium chloride solution (130 mM sodium chloride, 5 mM potassium chloride, 2 mM calcium chloride, 20 mM HEPES, 1 mM magnesium chloride hexahydrate, 5 mM sodium bicarbonate, pH 7.4). The substances to be tested, which are dissolved in DMSO, are pipetted into the test cultures (maximum final concentration of DMSO in the test mixture: 0.5%) in a dilution series of from 5×10^−11M to 3×10^−6M (final concentration). 10 minutes later, forskolin is added to the A1 cells and all the cultures are subsequently incubated at 37° C. for four hours. After that, 35 μl of a solution which is composed of 50% lysis reagent (30 mM disodium hydrogenphosphate, 10% glycerol, 3% TritonX100, 25 mM TrisHCl, 2 mM dithiotreitol (DTT), pH 7.8) and 50% luciferase substrate solution (2.5 mM ATP, 0.5 mM luciferin, 0.1 mM coenzyme A, 10 mM tricine, 1.35 mM magnesium sulfate, 15 mM DTT, pH 7.8) are added to the test cultures, which are shaken for approx. 1 minute and the luciferase activity is measured using a camera system. The EC50 values are determined, i.e., the concentrations at which 50% of the luciferase answer is inhibited in the case of the A1 cell, and, respectively, 50% of the maximum stimulation with the corresponding substance is achieved in the case of the A2b and A2a cells. […] Pharmacol., 357 (1998), 1-9).
(§4) Table 1 below lists the EC50 values of representative working examples for the receptor stimulation on adenosine A1, A2a and A2b receptor subtypes: […]

[2] = target: T2, adenosine A2a receptor (Homo sapiens, UniProt P29274); experiment: Indirect determination of adenosine agonism by way of gene expression (luciferase reporter), A2a cells; settings: CHO cells stably transfected with A2a receptor cDNA; 50% of maximum stimulation
T2 construct: expressed in transfected cells; host or cells: CHO (Chinese Hamster Ovary)
Source text: as §1, §2, §3, §4

[3] = target: T3, adenosine A2b receptor (Homo sapiens, UniProt P29275); experiment: Indirect determination of adenosine agonism by way of gene expression (luciferase reporter), A2b cells; settings: CHO cells stably transfected with A2b receptor cDNA; 50% of maximum stimulation
T3 construct: expressed in transfected cells; host or cells: CHO (Chinese Hamster Ovary)
T3 sequence (P29275 1-332): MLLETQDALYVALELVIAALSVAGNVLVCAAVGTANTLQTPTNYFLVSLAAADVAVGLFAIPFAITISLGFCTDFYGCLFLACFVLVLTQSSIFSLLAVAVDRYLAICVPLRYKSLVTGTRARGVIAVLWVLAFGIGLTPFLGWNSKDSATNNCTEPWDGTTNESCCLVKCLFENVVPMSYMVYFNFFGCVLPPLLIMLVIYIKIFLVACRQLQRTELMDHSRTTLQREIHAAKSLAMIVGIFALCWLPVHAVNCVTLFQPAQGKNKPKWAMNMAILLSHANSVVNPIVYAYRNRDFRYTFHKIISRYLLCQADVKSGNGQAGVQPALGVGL
Source text: as §1, §2, §3, §4

T2 sequence (P29274 whole entry): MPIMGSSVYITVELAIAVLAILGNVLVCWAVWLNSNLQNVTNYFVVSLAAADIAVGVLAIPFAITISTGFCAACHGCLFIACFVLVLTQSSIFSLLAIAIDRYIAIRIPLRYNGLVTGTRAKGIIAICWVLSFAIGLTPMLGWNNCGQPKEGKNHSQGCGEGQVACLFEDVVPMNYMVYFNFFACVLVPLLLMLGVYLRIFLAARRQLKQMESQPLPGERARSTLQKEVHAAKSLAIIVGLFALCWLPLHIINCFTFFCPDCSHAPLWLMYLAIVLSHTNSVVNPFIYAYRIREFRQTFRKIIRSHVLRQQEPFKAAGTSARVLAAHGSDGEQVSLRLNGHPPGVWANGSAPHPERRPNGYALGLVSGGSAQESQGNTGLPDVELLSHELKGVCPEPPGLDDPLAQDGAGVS

## N#Cc1c(SCc2csc(-c3ccc(Cl)cc3)n2)nc2c(c1-c1ccc(OCCO)cc1)C(=O)CCC2 [Example 2, 2-({[2-(4-Chlorophenyl)-1,3-thiazol-4-yl]methyl}thio)-4-[4-(2-hydroxyethoxy)phenyl]-5-oxo-5,6,7,8-tetrahydroquinoline-3-carbonitrile]
[1]
  EC50: 7.9 nM
[2]
  EC50: > 3000 nM
[3]
  EC50: 207 nM

## N#Cc1c(SCc2csc(-c3ccc(Cl)cc3)n2)nc2c(c1-c1ccc(OC[C@@H](O)CO)cc1)C(=O)CCC2 [Example 3, 2-({[2-(4-Chlorophenyl)-1,3-thiazol-4-yl]methyl}thio)-4-(4-{[(2S)-2,3-dihydroxypropyl]oxy}-phenyl)-5-oxo-5,6,7,8-tetrahydroquinoline-3-carbonitrile]
[1]
  EC50: 2.6 nM
[2]
  EC50: > 3000 nM
[3]
  EC50: 66 nM

## Cc1nc(N)c2c(-c3ccc(OCCO)cc3)c(C#N)c(SCc3csc(-c4ccc(Cl)cc4)n3)nc2n1 [Example 9, 4-Amino-7-({[2-(4-chlorophenyl)-1,3-thiazol-4-yl]methyl}sulfanyl)-5-[4-(2-hydroxyethoxy)phenyl]-2-methylpyrido[2,3-d]pyrimidine-6-carbonitrile]
[1]
  EC50: < 0.04 nM
[2]
  EC50: 68 nM
[3]
  EC50: 38 nM

## Cc1nc2nc(SCc3csc(-c4ccc(Cl)cc4)n3)c(C#N)c(-c3ccc(OCCO)cc3)c2c(=O)[nH]1 [Example 10, 7-({[2-(4-Chlorophenyl)-1,3-thiazol-4-yl]methyl}thio)-5-[4-(2-hydroxyethoxy)phenyl]-2-methyl-4-oxo-3,4-dihydropyrido[2,3-d]pyrimidine-6-carbonitrile]
[1]
  EC50: 0.4 nM
[2]
  EC50: 1370 nM
[3]
  EC50: 213 nM

## N#Cc1c(SCc2csc(-c3ccc(Cl)cc3)n2)nc2[nH]c(=O)[nH]c(=O)c2c1-c1ccc(OCCO)cc1 [Example 12, 7-({[2-(4-Chlorophenyl)-1,3-thiazol-4-yl]methyl}sulfanyl)-5-[4-(2-hydroxyethoxy)phenyl]-2,4-dioxo-1,2,3,4-tetrahydropyrido[2,3-d]pyrimidine-6-carbonitrile]
[1]
  EC50: 2 nM
[2]
  EC50: 2000 nM
[3]
  EC50: 880 nM

## COC(=O)c1ccc(-c2nc(CSc3nc4c(c(-c5ccccc5)c3C#N)CCC4)cs2)cc1 [Example 13, Methyl 4-(4-{[(3-cyano-4-phenyl-6,7-dihydro-5H-cyclopenta[b]pyridin-2-yl)sulfanyl]methyl}-1,3-thiazol-2-yl)benzoate]
[1]
  EC50: 21 nM
[3]
  EC50: 1250 nM
